Measured values: patent publication US5688485A, “Radiolabelled complexes of ester-substituted diaminethiols” (The DuPont Merck Pharmaceutical Company, priority 1992, dated 1997)
Where two headings read alike, the source gives them in different places.

Key:
[1] = cited from earlier work
[2] = in words; cited from earlier work
[3] = rhesus monkey, in vivo
Protocol: Three adult male Rhesus monkeys were used for planar scintigraphic imaging. Anesthesia was induced with ketamine and maintained with 1-2% halothane in a 70/30 mixture of nitrous oxide and oxygen.
All acquisitions were performed using a Picker Digital Dyna Camera and a Siemens MicroDELTA terminal/MAXDELTA system. A high resolution parallel-hole collimator ("HEX48") was mounted on the camera. The general static acquisition protocol was employed, using an acquisition matrix of 128 by 128 pixels, in word mode. Linearity, Z- and uniformity correction as provided for in the camera console, were employed and maintained.
To provide correction for attenuation, a transmission image of each animal was required. This had to be acquired in such a fashion as to permit the location of individual organs to be delineated from an aligned emission image. To do this, an 18-inch commercial refillable flood source (Nuclear Associates, Carle Place, N.Y.) was filled with water on a flat, horizontal surface. It was then loaded with between 20 mCi (740 Mbq) and 30 mCi (1110 Mbq) of Tc99mO4^-, and placed on a rolling cart. A Picker high-resolution collimator was then placed atop the source and the cart positioned under the patient examination table of the camera.
For each animal, a transmission image was acquired immediately prior to the control study injection, in the following fashion: An initial "flood" image was taken of the collimated source with neither the animal nor the examination table in place. Without moving anything else, the examination table, with the anesthetized animal, was placed between the source and the camera. Images were then taken of both the upper and lower portions of the body using a 128×128 pixel matrix in word mode. Table positioning was restricted by the track system so that positioning markers were necessary only for the dimension parallel to the animal's vertical axis.
Without moving the camera, the source was withdrawn and removed from the room. Adjustments to the camera-subject distance were made only by raising or lowering the table. The control compound was then injected and the control study begun. In this way, organs could be identified from the control study and the regions applied to the transmission study to determine attenuation correction factors on a per-organ basis. In addition, an "efficiency" factor was determined from images taken of a small flask containing a measured amount of radioactivity.
Following the injection of Tc-99m labeled materials, images were acquired of each animal using "spot" views over the upper and lower portions of the body with conjugate views (i.e. 180-degree opposed views) for each.
The resulting image data was analyzed by creating regions of interest (ROI's) for each organ and determining the sum of the recorded gamma photons for each organ in each view. From the transmission view, an attenuation correction factor was derived for each organ and the activity in the organ determined by taking the square root of the product of the ROI sums for conjugate views of the organ and then multiplying by the attenuation correction factor for that organ and then by the efficiency factor.
Each animal was imaged with Tc-99m-(L,L)-N,N'-1,2-ethylenediylbiscysteine, diethyl ester in order to serve as its own control. One test isomer was then administered to each of the monkeys. Frequent blood samples were drawn from a peripheral leg vein. Regions of interest were drawn around all pertinent organs and time-activity curves were constructed.

Row | Compound | Route / rate of renal elimination ([1]; in words) | Biodistribution: Brain ([3]; 30 min) | Biodistribution: Gall Bladder ([3]; 30 min) | Biodistribution: Urinary Bladder ([3]; 30 min) | Biodistribution: Brain ([3]; 60 min) | Biodistribution: Gall Bladder ([3]; 60 min) | Biodistribution: Urinary Bladder ([3]; 60 min) | further results
1 | Nc1ccc(C(=O)NCC(=O)O)cc1 [PAH, p-aminohippuric acid] | – | – | – | – | – | – | – | removed from the plasma by active secretion into the tubules ([1]; in vivo): approximately 70%
2 | O=C(O)CNC(=O)c1ccccc1[131I] [Example I-131-OIH, I-131-o-iodohippurate] | rapidly removed from the blood by active tubular secretion | – | – | – | – | – | – | renal extraction efficiency ([1]; in vivo): 65-80%; radiation burden to the patient [2]: significant radiation burden to the patient
3 | Tc-99m-diethylenetriamine pentaacetic acid [Tc-99m-DTPA] | eliminated entirely or nearly entirely by glomerular filtration | – | – | – | – | – | – | maximum extraction efficiency ([1]; in vivo): 20-25%
4 | anti-Tc-99m-(D,L)-N,N'-1,2-ethylenediylbiscysteine, diethyl ester [Example 3] | – | 2.1 percentage of the initial inje | 2.7 percentage of the initial inje | 4.2 percentage of the initial inje | 1.8 percentage of the initial inje | 6.4 percentage of the initial inje | 4.0 percentage of the initial inje | –
5 | Tc-99m-mercaptoacetyltriglycine [Tc-99m-MAG3] | secreted by the kidneys selectively by tubular secretion and approximately as rapidly as OIH | – | – | – | – | – | – | organ specificity ([1]; in words): less than desired
6 | syn-Tc-99m-(D,L)-N,N'-1,2-ethylenediylbiscysteine, diethyl ester [Example 2] | – | 3.4 percentage of the initial inje | 2.2 percentage of the initial inje | 58 percentage of the initial inje | 3.0 percentage of the initial inje | 6.2 percentage of the initial inje | 74 percentage of the initial inje | Renal excretion [3]: most rapidly excreted; Uptake in other organs / liver activity [3]: low uptake in other organs, especially the gall bladder
7 | Tc-99m-(L,L)-N,N'-1,2-ethylenediylbiscysteine, diethyl ester [Example 4] | – | 5.8 percentage of the initial inje | 10 percentage of the initial inje | 29 percentage of the initial inje | 5.6 percentage of the initial inje | 17 percentage of the initial inje | 42 percentage of the initial inje | –
8 | Tc-99m-(D,D)-N,N'-1,2-ethylenediylbiscysteine, diethyl ester [Example 5] | – | 1.7 percentage of the initial inje | 5.5 percentage of the initial inje | 5.0 percentage of the initial inje | 1.4 percentage of the initial inje | 5.2 percentage of the initial inje | 15 percentage of the initial inje | –
9 | O=C(O)CNC(=O)c1ccccc1[123I] [Example I-123-OIH] | – | – | – | – | – | – | – | radiation burden to the patient [2]: much lower radiation burden to the patient
